From patent publication US20260297129A1, “PEPTIDES AS SELECTIVE IL-23 RECEPTOR INHIBITORS” (SANOFI, priority 2023, published 2026)
Converted amounts (≈) assume the structure as drawn. Where two headings read alike, the source gives them in different places. Numbered stars: 1 amine (or outer) side, 2 acyl side, 3 side chain; on linkers, the order of the positions; unused ones are H or OH. Bridge positions count the residues as written; N and C are the ends. Square brackets hold non-standard residues; d marks the D form. Peptide text beside a SMILES is read from it. * marks the point of attachment. Lys(Me,(CH2)4NMe(CH2)5CO) = CN(CCCCCC(=O)[*:3])CCCCN(C)CCCC[C@H](N[*:1])C(=O)[*:2]; Lys(Me,(CH2)4NMe(CH2)4CO) = CN(CCCCC(=O)[*:3])CCCCN(C)CCCC[C@H](N[*:1])C(=O)[*:2]; Trp(7-Me) = Cc1cccc2c(C[C@H](N)C(=O)O)c[nH]c12; Trp(1-Me) = Cn1cc(C[C@H](N)C(=O)O)c2ccccc21; NH(2-(3-pyridyl)ethyl) = c1cncc(CCN*)c1; αMeLys(Me2) = CN(C)CCCC[C@](C)(N)C(=O)O; NH(CH2)9CO = O=C(CCCCCCCCCN[*:1])[*:2]; 2Nal = N[C@@H](Cc1ccc2ccccc2c1)C(=O)O; X4 = O=C(CCCCCCCCCCCCCCCN[*:1])[*:2]; 3Pal = N[C@@H](Cc1cccnc1)C(=O)O; Thp = NC1(C(=O)O)CCOCC1; Me2NCH2CH2 = CN(C)CC*; Aib = CC(C)(N)C(=O)O; Aoc = NCCCCCCCC(=O)O; Sar = CNCC(=O)O

Key:
[1] = Solubility of peptide compounds in buffer formulations (Table 5); format: physicochemical; conditions: target 1 mg/ml
Summary of the method: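 Peptide solids, dried from DMSO stock, were taken up at 1 mg/mL in 50 mM HCl pH 1.2, or 50 mM phosphate pH 6.5 or pH 7.4. After 2 h gentle agitation and filtration (0.45 μm), solubility was determined by UHPLC-UV peak area against a DMSO standard of known concentration.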

[2] = Protease stability in simulated intestinal fluids (FaSSIF) (Table 7); format: in vitro ADME; conditions: fassif with pancreatin, 37° C.; for remaining at 1 h, 1 µM: 60 min, read-out: Remaining percentage of peptide compound, FaSSIF 60 (min); for remaining at 2 h, 1 µM: 120 min, read-out: Remaining percentage of peptide compound, FaSSIF 120 (min); for remaining at 4 h, 1 µM: 240 min, read-out: Remaining percentage of peptide compound, FaSSIF 240 (min)
Summary of the method: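 1 μM peptide incubated at 37° C in simulated fluid (pancreatin-SIF prepared from pancreatin in SIF concentrate). Samples quenched with acidified ethanol at 0, 60, 120 and 240 min and analysed by LC-MS/MS. Percentage remaining from peak area relative to T0 (100%).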

[3] = Protease stability in simulated gastric fluids (FaSSGF) (Table 7); format: in vitro ADME; conditions: fassgf with pepsin, 60 min, 37° C., read-out: Remaining percentage of peptide compound, FaSSGF 60 (min)
Summary of the method: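 Peptides at 1 μM final were incubated at 37 °C in simulated gastric fluid with pepsin (320 mg per 100 mL SGF concentrate). Samples were quenched with ethanol (0.1% HCOOH) at 0, 60, 120 and 240 min and analysed by LC-MS/MS. Percent remaining is the peak area relative to T0 (100%).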

human IL-23R = target: T1, human IL-23R (Homo sapiens, UniProt Q5VWK5); experiment: Inhibition of IL-23 binding to IL-23R as measured by ELISA (Table 8); conditions: human IL23 coated 1 μg/ml; human IL-23R-Fc 0.1 μg/ml; 60 min; read-out: Human ELISA IL23/IL23R IC50
T1 sequence (Q5VWK5 24-353 limits assumed): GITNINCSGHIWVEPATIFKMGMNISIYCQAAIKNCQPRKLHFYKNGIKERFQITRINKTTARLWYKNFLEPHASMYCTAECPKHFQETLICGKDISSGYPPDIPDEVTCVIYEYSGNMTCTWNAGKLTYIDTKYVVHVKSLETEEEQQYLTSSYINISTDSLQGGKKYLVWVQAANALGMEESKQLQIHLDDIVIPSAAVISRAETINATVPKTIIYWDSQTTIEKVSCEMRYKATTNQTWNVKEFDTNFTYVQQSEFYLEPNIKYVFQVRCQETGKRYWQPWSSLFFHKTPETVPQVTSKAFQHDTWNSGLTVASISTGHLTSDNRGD
Protocol: Antagonism of compounds for human interleukin-23 receptor inhibitors, was determined by an ELISA assay.
A 384-well plate was coated with 50 μl/well of human IL23 at a final concentration of 1 μg/ml and incubated overnight at 4° C. The wells were washed 3 times with 80 μl wash buffer and blocked with 80 μl blocking buffer for 60 minutes at room temperature and washed again. 20 μl of serially diluted test peptides was added to each well and subsequently 20 μl of recombinant human IL-23R-Fc chimera at final concentration of 0.1 μg/ml. The plate was incubated for 60 minutes at room temperature. After the wells were washed, bound IL23R-Fc was detected with goat anti-hu-IgG1-HRP antibody. Signals were visualized with QUANTABLU fluorogenic peroxidase substrate.

[4] = tested on: IL-23 induced STAT3 signaling (IL-23 receptor) in HEK-Blue IL-23 cells; experiment: Inhibition of IL-23 induced STAT3 signaling in HEK-Blue IL-23 cells, SEAP reporter (Table 9); format: cell-based; conditions: human IL23 0.25 ng/ml, overnight, read-out: Inhibition of IL-23 induced pSTAT3 (IC50 nM)
Summary of the method: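 HEK-Blue IL-23 reporter cells (10,000/well) pre-incubated 60 min at 37 °C with serially diluted peptides, then stimulated overnight with human IL-23 at 0.25 ng/ml final. SEAP in supernatant read by QUANTI-Blue, 45 min room temperature, OD 620–655 nm; dose-response curve fitting.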

[5] = Chemical stability (relative purity loss) of peptide compounds in buffer formulations (Table 6); format: physicochemical; conditions: 2° C. and 37° C.
Summary of the method: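 Compounds at 0.5 mg/mL in 50 mM HCl pH 1.2, 50 mM phosphate pH 6.5 or pH 7.4, each with acetonitrile (3:1), stored 24 hours at 2° C and 37° C. Purity measured by UHPLC-UV before and after. Stability expressed as relative purity loss.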

[6] = Buffer pH 1.1 (head; method: 50 mM HCl pH 1.2), 2 h agitation, read-out: Solubility, Buffer pH 1.1
[7] = aqueous buffer, 50 mM phosphate buffer pH 6.5, 2 h agitation, read-out: Solubility, Buffer pH 6.5
[8] = aqueous buffer, 50 mM phosphate buffer pH 7.4, 2 h agitation, read-out: Solubility, Buffer pH 7.4
[9] = 50 mM phosphate buffer pH 6.5 + acetonitrile (3:1), read-out: Chemical stability (relative purity loss), Buffer pH 6.5
[10] = 50 mM phosphate buffer pH 7.4 + acetonitrile (3:1), read-out: Chemical stability (relative purity loss), Buffer pH 7.4
[11] = 50 mm hcl + acetonitrile, Buffer pH 1.1 (head; method: 50 mM HCl pH 1.2 + acetonitrile 3:1), read-out: Chemical stability (relative purity loss), Buffer pH 1.1

Row | Structure (SMILES) | solubility at 2 h [1, 6] [µg/mL] | solubility at 2 h [1, 7] [µg/mL] | solubility at 2 h [1, 8] [µg/mL] | remaining at 1 h, 1 µM [2] [%] | remaining at 2 h, 1 µM [2] [%] | remaining at 4 h, 1 µM [2] [%] | remaining at 1 h, 1 µM [3] [%] | IC50 (human IL-23R) [nM] | IC50 [4] [nM] | degraded at 24 h [5, 9] [%] | degraded at 24 h [5, 10] [%] | degraded at 24 h [5, 11] [%]
1 | Cc1cccc2c(C[C@@H]3NC(=O)CCCCCCCCCNC(=O)CC[C@@H](C(=O)N[C@@H](CC(N)=O)C(=O)N[C@@H](Cc4cccnc4)C(=O)N(C)CC(N)=O)NC(=O)C(C)(C)NC(=O)[C@H](Cc4ccc5ccccc5c4)NC(=O)[C@H](Cc4ccc(OCCN(C)C)cc4)NC(=O)C4(CCOCC4)NC(=O)[C@H](CCC(N)=O)NC3=O)c[nH]c12 [compound 5] ([NH(CH2)9CO][Trp(7-Me)]Q[Thp]Y(Me2NCH2CH2)[2Nal][Aib]EN[3Pal][Sar]-NH2; lactam N-8) | ≥ 1010 | 350 (≈ 218 µM) | 170 (≈ 106 µM) | 77 | 74 | 70 | 87 | 0.64 | 0.26 |  |  | 
2 | Cc1cccc2c(C[C@@H]3NC(=O)CCCCCCCCCCCCCCCNC(=O)CC[C@@H](C(=O)N[C@@H](CC(N)=O)C(=O)N[C@@H](Cc4cccnc4)C(=O)N(C)CC(N)=O)NC(=O)C(C)(C)NC(=O)[C@H](Cc4ccc5ccccc5c4)NC(=O)[C@H](Cc4ccc(OCCN(C)C)cc4)NC(=O)C4(CCOCC4)NC(=O)[C@H](CCC(N)=O)NC3=O)c[nH]c12 [compound 3] ([X4][Trp(7-Me)]Q[Thp]Y(Me2NCH2CH2)[2Nal][Aib]EN[3Pal][Sar]-NH2; lactam N-8) | ≥ 990 | < 10 | < 10 | 84 | 81 | 81 | 71 | 1.33 | 9.92 |  |  | 
3 | Cc1cccc2c(C[C@@H]3NC(=O)CCCCCCCNC(=O)CC[C@@H](C(=O)N[C@@H](CC(N)=O)C(=O)N[C@@H](Cc4cccnc4)C(=O)N(C)CC(N)=O)NC(=O)C(C)(C)NC(=O)[C@H](Cc4ccc5ccccc5c4)NC(=O)[C@H](Cc4ccc(OCCN(C)C)cc4)NC(=O)C4(CCOCC4)NC(=O)[C@H](CCC(N)=O)NC3=O)c[nH]c12 [compound 6] ([Aoc][Trp(7-Me)]Q[Thp]Y(Me2NCH2CH2)[2Nal][Aib]EN[3Pal][Sar]-NH2; lactam N-8) | ≥ 1240 | ≥ 1040 | ≥ 1090 | 86 | 77 | 77 | 88 | 0.67 | 4.77 |  |  | 
4 | Cc1cccc2c(C[C@@H]3NC(=O)CCCCN(C)CCCCN(C)CCCC[C@@H](C(=O)NCC(=O)NCCc4cccnc4)NC(=O)C(C)(C)NC(=O)[C@H](Cc4ccc5ccccc5c4)NC(=O)[C@H](Cc4ccc(OCCN(C)C)cc4)NC(=O)C4(CCOCC4)NC(=O)[C@H](CCC(N)=O)NC3=O)c[nH]c12 [compound 24] ([Trp(7-Me)]Q[Thp]Y(Me2NCH2CH2)[2Nal][Aib][Lys(Me,(CH2)4NMe(CH2)4CO)]G-{NH(2-(3-pyridyl)ethyl)}; lactam N-7) | ≥ 990 | ≥ 900 | ≥ 880 |  |  |  |  | 0.84 | 6.95 |  |  | 
5 | Cc1cccc2c(C[C@@H]3NC(=O)CCCCCN(C)CCCCN(C)CCCC[C@@H](C(=O)N[C@@H](CC(N)=O)C(=O)N[C@@H](Cc4cccnc4)C(=O)N(C)CC(N)=O)NC(=O)C(C)(C)NC(=O)[C@H](Cc4ccc5ccccc5c4)NC(=O)[C@H](Cc4ccc(OCCN(C)C)cc4)NC(=O)C4(CCOCC4)NC(=O)[C@H](CCC(N)=O)NC3=O)c[nH]c12 [compound 31] ([Trp(7-Me)]Q[Thp]Y(Me2NCH2CH2)[2Nal][Aib][Lys(Me,(CH2)4NMe(CH2)5CO)]N[3Pal][Sar]-NH2; lactam N-7) | ≥ 1020 | ≥ 1220 | ≥ 1090 | 93 | 91 | 90 | 100 |  | 0.71 | 0 | 0 | 6
6 | CN(C)CCOc1ccc(C[C@@H]2NC(=O)C3(CCOCC3)NC(=O)[C@H](CCC(N)=O)NC(=O)[C@H](Cc3cn(C)c4ccccc34)NC(=O)CCCCN(C)CCCCN(C)CCCC[C@@H](C(=O)NCC(=O)N[C@@H](Cc3cccnc3)C(=O)N(C)CC(N)=O)NC(=O)C(C)(C)NC(=O)[C@H](Cc3ccc4ccccc4c3)NC2=O)cc1 [compound 30] ([Trp(1-Me)]Q[Thp]Y(Me2NCH2CH2)[2Nal][Aib][Lys(Me,(CH2)4NMe(CH2)4CO)]G[3Pal][Sar]-NH2; lactam N-7) | ≥ 940 | ≥ 890 | 840 (≈ 533 µM) | 88 | 87 | 82 | 98 |  | 3.86 | 0 | 0 | 6.2
7 | CC(=O)NCCCC[C@@H]1NC(=O)[C@H](Cc2c[nH]c3c(C)cccc23)NC(=O)CCCCCN(C)CCCCN(C)CCCC[C@@H](C(=O)N[C@@H](CC(N)=O)C(=O)N[C@@H](Cc2cccnc2)C(=O)N(C)CC(N)=O)NC(=O)[C@](C)(CCCCN(C)C)NC(=O)[C@H](Cc2ccc3ccccc3c2)NC(=O)[C@H](Cc2ccc(OCCN(C)C)cc2)NC(=O)C2(CCOCC2)NC1=O [compound 34] ([Trp(7-Me)]K(Ac)[Thp]Y(Me2NCH2CH2)[2Nal][αMeLys(Me2)][Lys(Me,(CH2)4NMe(CH2)5CO)]N[3Pal][Sar]-NH2; lactam N-7) | ≥ 1200 | ≥ 1120 | ≥ 1120 | 98 | 98 | 100 | 94 |  | 1.34 | 0 | 0 | 0
8 | CN(C)CCOc1ccc(C[C@@H]2NC(=O)C3(CCOCC3)NC(=O)[C@H](CCC(N)=O)NC(=O)[C@H](Cc3cn(C)c4ccccc34)NC(=O)CCCCN(C)CCCCN(C)CCCC[C@@H](C(=O)N[C@@H](CO)C(=O)N[C@@H](Cc3cccnc3)C(=O)N(C)CC(N)=O)NC(=O)C(C)(C)NC(=O)[C@H](Cc3ccc4ccccc4c3)NC2=O)cc1 [compound 40] ([Trp(1-Me)]Q[Thp]Y(Me2NCH2CH2)[2Nal][Aib][Lys(Me,(CH2)4NMe(CH2)4CO)]S[3Pal][Sar]-NH2; lactam N-7) | ≥ 980 | ≥ 1070 | ≥ 1060 | 97 | 93 | 92 | 100 |  | 2.26 | 0 | 0 | 5.7
